Molecular target: T1, factor D (Homo sapiens, UniProt P00746)
T1 construct: made in house; host or cells: E. coli
Experiment: factor D inhibition assay of Biological Example 2
Type: biochemical

T1 sequence (P00746 26-253): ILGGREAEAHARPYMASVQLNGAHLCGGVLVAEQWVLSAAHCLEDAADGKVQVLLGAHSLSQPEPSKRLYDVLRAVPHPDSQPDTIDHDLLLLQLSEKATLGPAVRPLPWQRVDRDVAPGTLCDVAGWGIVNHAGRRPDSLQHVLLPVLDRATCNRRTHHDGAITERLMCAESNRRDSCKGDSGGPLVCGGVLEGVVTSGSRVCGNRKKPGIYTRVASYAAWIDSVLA

SMILES	IC50
NCc1cc(F)cc(-c2cc(OCc3ncccn3)cc(C(=O)Nc3ccccc3CC(=O)O)c2)c1 [Example 68, 2-(2-(3′-(Aminomethyl)-5′-fluoro-5-(pyrimidin-2-ylmethoxy)-[1,1′-biphenyl]-3-ylcarboxamido)phenyl)acetic acid]	20 nM
N[C@H](CO)c1cccc(-c2cc(COc3ccccc3CC(=O)O)cc(C(O)C(F)(F)F)c2)c1 (single isomer, unassigned) [116-G b) (tr = 3.4 min)]	9 nM
NCc1cccc(-c2cc(COc3ccccc3CC(=O)O)cc(OCC3CC3)c2)c1 [Example 136, 2-(2-((3′-(Aminomethyl)-5-(cyclopropylmethoxy)-[1,1′-biphenyl]-3-yl)methoxy)phenyl)acetic acid]	5 nM
N[C@H](CO)c1cccc(-c2cc(COc3ccccc3CC(=O)O)ccc2F)c1 [Example 122, (S)-2-(2-((3′-(1-Amino-2-hydroxyethyl)-6-fluoro-[1,1′-biphenyl]-3-yl)methoxy)phenyl)acetic acid]	15 nM
N[C@H](CO)c1cccc(-c2cccc(COc3ccccc3CC(=O)O)c2F)c1 [Example 123, (S)-2-(2-((3′-(1-Amino-2-hydroxyethyl)-2-fluoro-[1,1′-biphenyl]-3-yl)methoxy)phenyl)acetic acid]	312 nM
CC(C)OCc1cc(COc2ccccc2CC(=O)O)cc(-c2cccc([C@@H](C)N)c2)c1 [Example 120-P]	7 nM
NCc1cc(F)cc(-c2cc(NC3CCOC3)cc(C(=O)Nc3ccccc3CC(=O)O)c2)c1 (stereo not shown) [Example 79-B]	9 nM
Cc1ccc(COc2ccccc2CC(=O)O)cc1-c1cccc(CN)c1F [Example 149, 2-(2-((3′-(Aminomethyl)-2′-fluoro-6-methyl-[1,1′-biphenyl]-3-yl)methoxy)phenyl)acetic acid]	44 nM
COc1ccc(COc2ccccc2CC(=O)O)cc1-c1cccc([C@H](N)CO)c1 [Example 127-B, (S)-2-(2-((3′-(1-Amino-2-hydroxyethyl)-6-methoxy-[1,1′-biphenyl]-3-yl)methoxy)phenyl)acetic acid]	62 nM
COc1c(C(=O)Nc2ccccc2CC(=O)O)cccc1-c1cc(F)cc(CN)c1 [Example 93-B, 2-(2-(3′-(Aminomethyl)-5′-fluoro-2-methoxy-[1,1′-biphenyl]-3-ylcarboxamido)phenyl)acetic acid]	6720 nM
C[C@@H](N)c1cccc(-c2cccc(C(=O)Nc3ccccc3CC(=O)O)c2)c1 [Example 90, (R)-2-(2-(3′-(1-aminoethyl)-[1,1′-biphenyl]-3-ylcarboxamido)phenyl)acetic acid]	823 nM
NCc1cccc(-c2ccnc(C(=O)Nc3ccccc3CC(=O)O)c2)c1 [Example 39, 2-(2-(4-(3-(Aminomethyl)phenyl)picolinamido)phenyl)acetic acid]	40500 nM
N[C@H](CO)c1cccc(-c2cc(COc3ccccc3CC(=O)O)cc(C(O)C3CCCCC3)c2)c1 (single isomer, unassigned) [116-I b) (tr = 4.0 min)]	26 nM
CNc1sc(-c2cc(F)cc(CN)c2)nc1C(=O)Nc1cc(C)ccc1CC(=O)O [Example 34-C, 2-(2-(2-(3-(Aminomethyl)-5-fluorophenyl)-5-(methylamino)thiazole-4-carboxamido)-4-methylphenyl)acetic acid]	5 nM
Cc1ccc(CC(=O)O)c(NC(=O)c2cccc(-c3cc(F)cc(CN)c3)n2)c1 [Example 21-M]	22 nM
N[C@H](CO)c1cccc(-c2cccc(COc3c(F)cccc3CC(=O)O)c2)c1 [Example 75-B, (S)-2-(2-((3′-(1-Amino-2-hydroxyethyl)-[1,1′-biphenyl]-3-yl)methoxy)-3-fluorophenyl)acetic acid]	26 nM

The next lines start with the values.

IC50	SMILES
1110 nM	NC(=O)C(N)c1cccc(-c2cccc(COc3ccccc3CC(=O)O)c2)c1 (racemic) [Example 189, (±)-2-(2-((3′-(1,2-Diamino-2-oxoethyl)-[1,1′-biphenyl]-3-yl)methoxy)phenyl)acetic acid]
3 nM	NCc1cccc(-c2cc(COc3ccccc3CC(=O)O)cc(-c3cc4ccccc4[nH]3)c2)c1 [Example 209-A]
20 nM	C[C@H](N)c1cccc(-c2cc(COc3ccccc3CC(=O)O)cc(OCc3ccccn3)c2)c1F [Example 214-M]
8 nM	N[C@H](CO)c1cccc(-c2ccc3c(c2)C(Oc2ccccc2CC(=O)O)CCC3)c1 (mixture of isomers) [Example 181, 2-(2-((7-(3-((S)-1-Amino-2-hydroxyethyl)phenyl)-1,2,3,4-tetrahydronaphthalen-1-yl)oxy)phenyl)acetic acid (mixture of diastereomers)]
33 nM	C[C@@H](N)c1cccc(-c2cc(NCC(F)F)cc(N(C)Cc3ccccc3CC(=O)O)c2)c1F [Example 216-AC]
61 nM	CC(Oc1ccccc1CC(=O)O)c1cccc(-c2cccc(CN)c2)c1 (racemic) [Example 163, (±)-2-(2-(1-(3′-(aminomethyl)-[1,1′-biphenyl]-3-yl)ethoxy)phenyl)acetic acid]
107 nM	CCC[C@@H](N)c1cccc(-c2cccc(COc3ccccc3CC(=O)O)c2)c1F [Example 195-B, (R)-2-(2-((3′-(1-Aminobutyl)-2′-fluoro-[1,1′-biphenyl]-3-yl)methoxy)phenyl)acetic acid]
22 nM	N[C@H](CO)c1cccc(-c2ccnc(COc3ccccc3CC(=O)O)c2)c1 [Example 170, (S)-2-(2-((4-(3-(1-Amino-2-hydroxyethyl)phenyl)pyridin-2-yl)methoxy)phenyl)acetic acid]
78 nM	C[C@H](N)c1cccc(-c2cc(CCc3ccncc3)cc(COc3ccccc3CC(=O)O)c2)c1F [Example 216-O]
23 nM	C[C@@H](N)c1cccc(-c2cc(CCC3CCCN3)cc(COc3ccccc3CC(=O)O)c2)c1F (stereo partly drawn) [Example 238, 2-(2-((3′-((R)-1-aminoethyl)-2′-fluoro-5-(2-(pyrrolidin-2-yl)ethyl)-[1,1′-biphenyl]-3-yl)methoxy)phenyl)acetic acid]
6 nM	C[C@@H](N)c1cccc(-c2cc(C#Cc3ccn(C)n3)cc(COc3ccccc3CC(=O)O)c2)c1F [Example 218-G, (R)-2-(2-((3′-(1-Aminoethyl)-2′-fluoro-5-((1-methyl-1H-pyrazol-3-yl)ethynyl)-[1,1′-biphenyl]-3-yl)methoxy)phenyl)acetic acid]
8 nM	NC(CF)c1cccc(-c2cccc(COc3ccccc3CC(=O)O)c2)c1F (stereo not shown) [Example 215, 2-(2-((3′-(1-amino-2-fluoroethyl)-2′-fluoro-[1,1′-biphenyl]-3-yl)methoxy)phenyl)acetic acid]
14 nM	C[C@@H](N)c1cccc(-c2cc(NCC3CC3)c3c(c2)C(Oc2ccccc2CC(=O)O)CCO3)c1F (stereo partly shown) [Example 216-X]
90 nM	CCN(CC1CC1)c1cc(COc2ccccc2CC(=O)O)cc(-c2cccc([C@@H](C)N)c2F)c1 [Example 242-C, (R)-2-(2-((3′-(1-aminoethyl)-5-((cyclopropylmethyl)(ethyl)amino)-2′-fluoro-[1,1′-biphenyl]-3-yl)methoxy)phenyl)acetic acid]
9 nM	N[C@H](CO)c1cccc(-c2cc(COc3ccccc3CC(=O)O)cc(OC[C@H]3CCCO3)c2)c1F [Example 231-F, 2-(2-((3′-((S)-1-amino-2-hydroxyethyl)-2′-fluoro-5-(((R)-tetrahydrofuran-2-yl)methoxy)-[1,1′-biphenyl]-3-yl)methoxy)phenyl)acetic acid]

Source: patent US20160145247A1, “Aminomethyl-Biaryl Derivatives Complement Factor D inhibitors and uses thereof” (NOVARTIS AG, priority 2013, published 2016)
